Data on 11 compounds can be found in US20200190062A1, “HETEROCYCLIC COMPOUND AND PHARMACEUTICAL COMPOSITION COMPRISING SAME” (BEYONDBIO INC., priority 2015, published 2020).

SMILES strings stand for the structures.

The subject of one assay is U-87MG. Nature of the assay: Inhibition of cancer cell proliferation (MTT). The class given is cell-based, human. In a few lines: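 Absorbance at 535 nm of DMSO-dissolved formazan (2 h MTT) gives viability versus 0.08% DMSO-treated cells, and GI50 is derived from eight concentrations between 0.004 and 10 uM. Exposure lasts 72 h at 37 °C, 5% CO2, using 3000 cells/well in 10% FBS medium ([…] for NCI-H23, otherwise DMEM).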

For the next assay, the system named is SK-N-SH. Description: Inhibition of cancer cell proliferation (MTT). The conditions noted are these: Homo sapiens, SK-N-SH, 72 h. The class given is cell-based, human. In a few lines:
(§1)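 72 h MTT proliferation assay; cells seeded at 3000/well (A549, SK-N-SH, SH-SY5Y, NCI-H23) and attached 16 h at 37 °C, then treated at 0.004–10 uM with 0.08% DMSO control. Absorbance at 535 nm read after 2 h MTT; GI50 from viability relative to untreated control.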

The subject of a further assay is SH-SY5Y. Description: Inhibition of cancer cell proliferation (MTT). The settings on record: Homo sapiens, SH-SY5Y, 72 h. Format: cell-based, human. A digest of the protocol:
as §1

Another assay deals with HCT116. Nature of the assay: Inhibition of cancer cell proliferation (MTT). Format: cell-based, human.
The target of another assay is T1, CDK5/p25 (Homo sapiens, UniProt Q00535).
T1 construct: purchased Merck Millipore
T1 sequence (Q00535 whole entry): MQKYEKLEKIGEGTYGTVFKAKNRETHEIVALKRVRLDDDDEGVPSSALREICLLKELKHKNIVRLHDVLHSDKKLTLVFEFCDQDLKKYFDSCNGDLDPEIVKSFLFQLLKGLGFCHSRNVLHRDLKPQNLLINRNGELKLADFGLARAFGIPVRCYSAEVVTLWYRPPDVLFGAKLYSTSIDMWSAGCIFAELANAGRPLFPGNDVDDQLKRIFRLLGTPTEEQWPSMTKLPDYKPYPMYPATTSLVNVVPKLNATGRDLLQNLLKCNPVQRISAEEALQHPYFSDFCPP
T1 sequence (Q15078 99-307 partner limits assumed): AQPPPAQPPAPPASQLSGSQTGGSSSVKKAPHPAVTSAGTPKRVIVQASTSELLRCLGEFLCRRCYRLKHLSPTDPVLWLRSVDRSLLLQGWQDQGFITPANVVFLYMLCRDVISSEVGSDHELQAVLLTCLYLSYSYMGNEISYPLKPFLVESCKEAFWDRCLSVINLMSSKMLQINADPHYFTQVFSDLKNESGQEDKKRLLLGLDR
Description: Inhibition of CDK enzyme activity (ADP-Glo kinase assay). The class given is biochemical. The settings on record: 10 uM ATP, histone H1 substrate. The procedure:
(§2) Test compounds were prepared by dissolving the compounds obtained in the above Examples in dimethylsulfoxide (DMSO) at a concentration of 10 mM. The test compounds were diluted to 200 nM, 50 nM, […], 3.13 nM, 0.78 nM, and 0.2 nM and used in an enzyme reaction.
(§3) CDK enzyme reaction was conducted in a buffer containing 50 mM Tris-HCl (pH 7.5), 10 mM MgCl2, 1 mM EGTA, 1 mM EDTA, and 2 mM DTT. CDK1/cyclinB, CDK2/cylcinE, CDK5/p25, and CDK6/cyclinD3 enzymes commercially available from Merck Millipore were used for CDK1, CDK2, CDK5, and CDK6 enzymes, respectively, and CDK4/cyclinD1 enzyme commercially available from Signalchem (US) was used for CDK4. For CDK1, a reaction proceeded by adding 10 nM CDK1/cyclinB and 0.125 mg/ml histone H1 (Merck Millipore) substrate to the buffer and then adding 10 uM ATP thereto. For CDK2, a reaction was proceeded by adding 10 nM CDK2/cyclinE and 0.125 mg/ml histone H1 substrate to the buffer and then adding 10 uM ATP thereto. For CDK5, a reaction was proceeded by adding 10 nM CDK5/p25 and 0.125 mg/ml histone H1 substrate to the buffer and then adding 10 uM ATP thereto. For CDK4, a reaction was proceeded by adding 20 nM CDK4/cyclinD1 and 0.125 mg/ml Rb protein (Merck Millipore) to the buffer and then adding 10 uM ATP thereto. For CDK6, a reaction was proceeded by adding 50 nM CDK6/cyclinD3 and 0.125 mg/ml histone H1 substrate to the buffer and then adding 10 uM ATP thereto. Each enzyme reaction was incubated at 30° C. for 60 min. Then, the amount of ADP produced was measured using Victor X4 instrument (Perkin Elmer) after generating luminescence using ADP-Glo kinase assay kit (Promega, US). An inhibition effect on each enzyme was represented as a percentage of the luminescence value in the presence of the test compounds relative to the luminescence value without the test compounds. IC50 (nM) is the concentration of the compound to inhibit 50% of the enzyme activity.

In another assay the target is T2, CDK1/cyclinB (Homo sapiens, UniProt P06493).
T2 construct: purchased Merck Millipore
T2 sequence (P06493 whole entry): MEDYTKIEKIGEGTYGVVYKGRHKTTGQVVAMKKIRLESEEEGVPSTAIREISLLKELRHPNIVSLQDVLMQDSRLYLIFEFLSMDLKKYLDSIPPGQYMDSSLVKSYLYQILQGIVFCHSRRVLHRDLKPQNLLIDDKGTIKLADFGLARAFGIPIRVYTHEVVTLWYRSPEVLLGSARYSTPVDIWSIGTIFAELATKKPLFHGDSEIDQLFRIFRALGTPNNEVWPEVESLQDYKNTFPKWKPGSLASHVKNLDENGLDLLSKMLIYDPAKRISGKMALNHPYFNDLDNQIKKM
T2 sequence (P14635 whole entry partner): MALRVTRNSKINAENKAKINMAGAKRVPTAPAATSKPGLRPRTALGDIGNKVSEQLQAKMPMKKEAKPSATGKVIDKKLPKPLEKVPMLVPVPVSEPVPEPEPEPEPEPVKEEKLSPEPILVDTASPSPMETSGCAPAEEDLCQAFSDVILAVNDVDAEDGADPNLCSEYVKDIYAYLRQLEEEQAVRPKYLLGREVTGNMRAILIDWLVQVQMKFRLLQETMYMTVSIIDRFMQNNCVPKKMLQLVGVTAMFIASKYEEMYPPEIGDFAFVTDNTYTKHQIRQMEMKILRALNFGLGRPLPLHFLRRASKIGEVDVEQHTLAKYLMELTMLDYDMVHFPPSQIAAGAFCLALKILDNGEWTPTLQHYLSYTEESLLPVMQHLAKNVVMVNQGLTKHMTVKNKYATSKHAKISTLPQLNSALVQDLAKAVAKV
The assay is described as above. Format: biochemical. The settings on record: 10 uM ATP, histone H1 substrate. On the procedure:
as §2, §3

A further assay has as its target T3, CDK6/cyclinD3 (Homo sapiens, UniProt Q00534).
T3 construct: purchased Merck Millipore
The assay is described as above. Format: biochemical. The settings on record: 10 uM ATP, histone H1 substrate; read-out: IC50 CDK6/cyclinD. The procedure: as §2, §3

A further assay deals with T4, CDK2/cyclinE (Homo sapiens, UniProt P24941).
T4 construct: purchased Merck Millipore
Described as above. The settings on record: 10 uM ATP, histone H1 substrate. The class given is biochemical. The procedure: as §2, §3

The target in a further assay is T5, CDK4/cyclinD1 (Homo sapiens, UniProt P11802).
T5 construct: purchased Signalchem (US)
T5 sequence (P11802 whole entry): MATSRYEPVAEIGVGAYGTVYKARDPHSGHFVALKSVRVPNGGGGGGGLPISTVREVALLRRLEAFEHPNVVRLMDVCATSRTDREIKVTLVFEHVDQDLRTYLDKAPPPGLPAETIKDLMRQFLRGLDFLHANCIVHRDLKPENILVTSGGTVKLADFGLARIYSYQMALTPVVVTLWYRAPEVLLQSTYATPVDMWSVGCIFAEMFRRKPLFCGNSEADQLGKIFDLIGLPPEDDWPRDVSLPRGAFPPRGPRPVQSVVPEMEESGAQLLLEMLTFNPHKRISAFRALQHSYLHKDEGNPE
T5 sequence (P24385 whole entry partner): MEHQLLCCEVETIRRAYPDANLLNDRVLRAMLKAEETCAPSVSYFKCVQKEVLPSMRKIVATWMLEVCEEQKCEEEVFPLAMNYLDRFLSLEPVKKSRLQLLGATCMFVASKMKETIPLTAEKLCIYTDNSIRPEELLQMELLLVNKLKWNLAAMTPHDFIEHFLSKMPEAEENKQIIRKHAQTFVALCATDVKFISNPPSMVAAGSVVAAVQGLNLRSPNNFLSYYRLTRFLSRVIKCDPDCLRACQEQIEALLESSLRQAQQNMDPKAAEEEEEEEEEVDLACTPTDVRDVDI
The description is as above. The class given is biochemical. The settings on record: 10 uM ATP, Rb protein substrate; read-out: IC50 CDK4/cyclinD. The procedure:
as §2, §3

In another assay the test system is NCI-H23. Description: Inhibition of cancer cell proliferation (MTT). Format: cell-based, human. A digest of the protocol: as §1
A further assay relates to A549. Description: Inhibition of cancer cell proliferation (MTT). The class given is cell-based, human. In a few lines: as §1
For another assay, the system named is T98G. Description: Inhibition of cancer cell proliferation (MTT). The class given is cell-based, human. A digest of the protocol: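 Plate 3000 cells/well and let them adhere for 16 h. Add compound (0.004, 0.013, 0.04, 0.12, 0.37, 1.1, 3.3, 10 uM; 0.08% DMSO) and culture for 72 h. Add MTT for 2 h, dissolve formazan in DMSO, read at 535 nm, and fit GI50.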
The subject of a further assay is Tau protein. Nature of the assay: Inhibition of Tau phosphorylation (Western blot, pSer202) in SH-SY5Y cells. The class given is cell-based. The conditions noted are these: 4 hrs. The procedure: SH-SY5Y cells expressing Tau protein were cultured in DMEM containing 10% FBS. 2.5×10^6 cells were placed in a 6-well plate and incubated at 5% CO2 and 37° C. for 16 hrs. The compounds obtained in the above Examples serially diluted ⅓ from 3 uM to 0.5 nM or the compounds in a concentration of 0.3, 0.1, 0.03, 0.01, 0.003 uM were treated for 4 hrs in DMEM containing 5% FBS. After 4 hrs, the culture solution was removed, washed with PBS, and cells were lysed by adding 100 ul of lysis buffer. The lysis buffer consisted of 50 mM Tris-HCl (pH 7.5), 150 mM NaCl, 5 mM EDT, 1 mM EGTA, 50 mM NaF, 1 mM PMSF, 1 mM Na3VO4, 2.5 mM DTT, 1% Triton X-100, and Protease inhibitor (Pierce). The lysed cells were centrifuged at 10,000 rpm and 4° C. for 10 min and the proteins in the supernatant were quantified. 25 ug of the proteins were electrophoresed on a SDS-PAGE gel and transferred to PVDF (Amersharm) membrane. The PVDF membrane was immersed in T-PBS containing 10% skim milk and shaken for 1 hr at room temperature. The primary antibody, Phosph-Tau[pSer202] (Abcam), diluted 1:1500 in T-PBS solution containing 5% skim milk was reacted with the membrane at room temperature for 2 hrs. The membrane was washed with T-PBS. The secondary antibody, Anti-rabbit IgG HRP, diluted 1:5000 was added to the membrane, reacted at room temperature for 1 hr, and washed.

T3 sequence (Q00534 whole entry): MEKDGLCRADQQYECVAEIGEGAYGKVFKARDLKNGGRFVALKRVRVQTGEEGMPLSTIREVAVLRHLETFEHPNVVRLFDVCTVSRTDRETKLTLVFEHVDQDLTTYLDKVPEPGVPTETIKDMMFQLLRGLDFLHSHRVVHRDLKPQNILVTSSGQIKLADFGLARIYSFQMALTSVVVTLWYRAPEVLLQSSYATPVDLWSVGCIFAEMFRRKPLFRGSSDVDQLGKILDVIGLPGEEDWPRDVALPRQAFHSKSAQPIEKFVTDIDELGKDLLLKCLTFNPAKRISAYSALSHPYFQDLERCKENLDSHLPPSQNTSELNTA
T3 sequence (P30281 whole entry partner): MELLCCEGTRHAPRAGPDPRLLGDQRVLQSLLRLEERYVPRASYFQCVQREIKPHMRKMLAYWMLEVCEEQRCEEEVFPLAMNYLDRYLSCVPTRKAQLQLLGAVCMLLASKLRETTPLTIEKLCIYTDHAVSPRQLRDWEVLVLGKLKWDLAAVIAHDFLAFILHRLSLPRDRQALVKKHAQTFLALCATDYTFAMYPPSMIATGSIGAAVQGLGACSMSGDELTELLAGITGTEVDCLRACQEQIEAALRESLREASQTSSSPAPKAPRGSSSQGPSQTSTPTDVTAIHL

For the compound `Nc1nccc(-c2cc(-c3ccnc(N)n3)c(O)cn2)n1` [Example 3, 4,6-bis(2-aminopyrimidin-4-yl)pyridin-3-ol], the GI50 is 2640 nM in the assay on U-87MG (Homo sapiens, U-87 MG, 72 h); 1430 nM in the assay on SK-N-SH; 880 nM in the assay with SH-SY5Y; 1150 nM in the assay on HCT116 (Homo sapiens, HCT-116, 72 h).
On the same counts, the results for `Nc1nccc(-c2nc(-c3cccc(O)c3)ccc2O)n1` [Example 13, 2-(2-aminopyrimidin-4-yl)-6-(3-hydroxyphenyl)pyridin-3-ol] are 4600 nM, 7220 nM, 680 nM and 6970 nM.
The like results for `Nc1nccc(-c2nc(-c3ccncc3F)ccc2O)n1` [Example 14, 6-(2-aminopyrimidin-4-yl)-3′-fluoro-[2,4′-bipyridin]-5-ol] were, in that order, 3410 nM, 1040 nM, 540 nM and 590 nM.
As to `Cc1cc(-c2nc(-c3ccnc(N)c3F)ccc2O)nc(N)n1` [Example 24, 2′-amino-6-(2-amino-6-methylpyrimidin-4-yl)-3′-fluoro-[2,4′-bipyridin]-5-ol], the IC50 at CDK5/p25 came to 0.7 nM; on CDK1/cyclinB it was 0.6 nM; at CDK6/cyclinD3, 33.8 nM; against CDK2/cyclinE, 0.9 nM; on CDK4/cyclinD1 it was 342 nM. For the same compound, the GI50 in the assay with HCT116 (Homo sapiens, HCT-116, 72 h) was determined as 20 nM.
For the compound `CC(C)c1cc(-c2nc(-c3ccnc(N)c3F)ccc2O)nc(N)n1` [Example 31, 2′-amino-6-(2-amino-6-isopropylpyrimidin-4-yl)-3′-fluoro-[2,4′-bipyridin]-5-ol], the IC50 came out at 3.13 nM at CDK5/p25; 2.3 nM against CDK1/cyclinB; 61.5 nM on CDK6/cyclinD3; 0.59 nM against CDK2/cyclinE; 35.9 nM at CDK4/cyclinD1. The 50% growth inhibitory concentration (GI50) with NCI-H23 (Homo sapiens, NCI-H23, 72 h) was determined as 100 nM; in the assay on A549 (Homo sapiens, A549, 72 h), 180 nM; in the assay on HCT116 (Homo sapiens, HCT-116, 72 h), 30 nM.
Take `Nc1nc(-c2nc(-c3ccnc(N)c3F)ccc2O)cc(C2CCNCC2)n1` [Example 33, 2′-amino-6-(2-amino-6-(piperidin-4-yl)pyrimidin-4-yl)-3′-fluoro-[2,4′-bipyridin]-5-ol]: the IC50 came to 9.89 nM on CDK5/p25; 17.1 nM against CDK1/cyclinB; 240 nM at CDK6/cyclinD3; 3.7 nM against CDK2/cyclinE; 39.3 nM at CDK4/cyclinD1. The GI50 with U-87MG (Homo sapiens, U-87 MG, 72 h) turned out to be 150 nM; with NCI-H23 (Homo sapiens, NCI-H23, 72 h), 1710 nM; with A549 (Homo sapiens, A549, 72 h) it was 190 nM; with HCT116 (Homo sapiens, HCT-116, 72 h) it was 50 nM; in the assay with T98G (Homo sapiens, T98G, 72 h), 260 nM.
Consider `CN1CCC(c2cc(-c3nc(-c4ccnc(N)c4F)ccc3O)nc(N)n2)CC1` [Example 34, 2′-amino-6-(2-amino-6-(1-methylpiperidin-4-yl)pyrimidin-4-yl)-3′-fluoro-[2,4′-bipyridin]-5-ol], for which the “Phosphorylation (%) of Tau” value is 103% in the assay on Tau protein (0.003 uM); 27% in the assay on Tau protein (0.01 uM); 13% with Tau protein (0.03 uM); 21% with Tau protein (0.1 uM); 21% in the assay on Tau protein (0.3 uM). In addition, the IC50 was 2.2 nM against CDK5/p25; 2.1 nM against CDK1/cyclinB; 176 nM at CDK6/cyclinD3; 2.2 nM at CDK2/cyclinE; 31.5 nM on CDK4/cyclinD1. The GI50 was determined as 30 nM with U-87MG (72 hrs); 70 nM in the assay with NCI-H23 (72 hrs); 40 nM with A549 (72 hrs); 20 nM in the assay on HCT116 (72 hrs); 150 nM in the assay with T98G (72 hrs).
As for `Nc1nc(-c2nc(-c3ccnc(N)c3F)ccc2O)cc(N2CCOCC2)n1` [Example 51, 2′-amino-6-(2-amino-6-morpholinopyrimidin-4-yl)-3′-fluoro-[2,4′-bipyridin]-5-ol], the IC50 against CDK5/p25 turned out to be 2.8 nM; against CDK1/cyclinB, 1 nM; at CDK6/cyclinD3 it was 35.8 nM; on CDK2/cyclinE it was 4.5 nM; on CDK4/cyclinD1 it was 81.3 nM. The GI50 with U-87MG (Homo sapiens, U-87 MG, 72 h) was 10 nM; in the assay with NCI-H23 (Homo sapiens, NCI-H23, 72 h), 10 nM; in the assay with A549 (Homo sapiens, A549, 72 h), 10 nM; in the assay with HCT116 (Homo sapiens, HCT-116, 72 h), 3 nM; with T98G (Homo sapiens, T98G, 72 h) it was 10 nM.
For `CN(C)c1cc(-c2nc(-c3ccnc(N)c3F)ccc2O)nc(N)n1` [Example 52, 2′-amino-6-(2-amino-6-(dimethylamino)pyrimidin-4-yl)-3′-fluoro-[2,4′-bipyridin]-5-ol], the IC50 on CDK5/p25 stood at 1.9 nM; on CDK1/cyclinB it was 0.7 nM; on CDK6/cyclinD3, 59.6 nM; at CDK2/cyclinE, 14.6 nM; at CDK4/cyclinD1, 63.7 nM. The GI50 in the assay with NCI-H23 (Homo sapiens, NCI-H23, 72 h) came to 30 nM; in the assay with A549 (Homo sapiens, A549, 72 h) it was 20 nM; in the assay on HCT116 (Homo sapiens, HCT-116, 72 h), 10 nM.
In the case of `CN1CCN(c2cc(-c3nc(-c4ccnc(N)c4F)ccc3O)nc(N)n2)CC1` [Example 53, 2′-amino-6-(2-amino-6-(4-methylpiperazin-1-yl)pyrimidin-4-yl)-3′-fluoro-[2,4′-bipyridin]-5-ol], the IC50 at CDK5/p25 was 2.8 nM; on CDK1/cyclinB it was 4 nM; on CDK6/cyclinD3 it was 86.8 nM; against CDK2/cyclinE it was 10.8 nM; on CDK4/cyclinD1 it was above 200 nM. Also, the GI50 in the assay on U-87MG (Homo sapiens, U-87 MG, 72 h) was 30 nM; in the assay on NCI-H23 (Homo sapiens, NCI-H23, 72 h), 40 nM; with A549 (Homo sapiens, A549, 72 h) it was 20 nM; in the assay on HCT116 (Homo sapiens, HCT-116, 72 h), 10 nM.
For `CC(C)c1cnc(N)nc1-c1nc(-c2ccnc(N)c2F)ccc1O` [Example 104], the IC50 against CDK5/p25 is 0.8 nM; against CDK1/cyclinB it was 1.3 nM; at CDK6/cyclinD3, 54.1 nM; against CDK2/cyclinE, 1.6 nM; on CDK4/cyclinD1 it was 15.2 nM. Besides, the GI50 with U-87MG (72 hrs) was found to be 70 nM; in the assay with NCI-H23 (72 hrs) it was 80 nM; in the assay on A549 (72 hrs), 80 nM; in the assay with HCT116 (72 hrs), 30 nM; in the assay with T98G (72 hrs), 50 nM.
